Source: patent publication US8110582B2, “Prophylactic treatment of UV-induced epidermal neoplasia” (3M Innovative Properties Company, priority 2003, dated 2012)

Experiments:
[1] = test system: actinic keratosis (AK) lesions; test: Clinical treatment of actinic keratosis lesions and recurrence at follow-up, Example 5; type: in vivo
Method: Subjects with four to eight clinically typical, visible, discrete actinic keratosis (AK) lesions in a 25 cm^2 treatment area were randomized in a 1:1 ratio to receive either a 5% cream formulation of IRM14 (ALDARA, 3M Company, St. Paul, Minn.) or vehicle cream once daily three days per week. Subjects received treatment for sixteen weeks even if clinical evidence of lesion clearance was observed. Subjects were evaluated at an Evaluation visit eight weeks after the treatment period concluded.
Subjects were instructed to administer a single application of cream (vehicle or IRM14, as assigned) to the treatment area at approximately the same time of day three days per week. The subjects were instructed to wash the treatment area prior to applying the cream, rub the cream into the treatment area, and then leave the cream in place for at least eight hours without occlusion.
Subjects with no (zero) clinically visible AK lesions in the 25 cm^2 treatment area at the Evaluation visit were considered complete responders. 117 of 242 (48.3%) subjects receiving IRM14 were complete responders; 18 of 250 (7.2%) vehicle-treated subjects were complete responders.
Complete responders were re-evaluated for recurrence of AK lesions at a Follow-up visit between 12 and 18 months after the Evaluation visit. Subjects received no IRM14 treatment between the Evaluation visit and the Follow-up visit. […]

[2] = test system: UV-induced squamous cell carcinoma (SCC), actinic keratosis (AK), or pre-AK lesions; test: UV-induced epidermal neoplasia in SKH-1 mice, Example 4 (simultaneous initiation, 17 weeks); type: in vivo; details: 0.1% formulation, twice per week; for Avg. Disease Score: UV 17 weeks, every SCC, AK and pre-AK lesion scored 1; for % Disease / Diseased (number of mice): UV five days per week for 17 weeks
Description: (§1) Female SKH-1 mice 9-10 weeks old were obtained from Charles River (Raleigh, N.C.) and housed in a room with controlled temperatures and humidity and alternating 12-hour light and dark cycles. The room is lit with fluorescent lights covered by yellow sleeves from EncapSulite International, Inc. (Rosenberg, Tex.) to eliminate all ambient UV radiation. The mice were fed with a 12% Corn Oil Purified Diet from Purina Test Diet (Richmond, Va.) and water, ad libitum. The animals were maintained in facilities approved by the Association for the Assessment and Accreditation of Laboratory Animal Care International and in accordance with current United States Department of Agriculture, Department of Health and Human Services, and National Institutes of Health regulations and standards.
(§2) A small group of mice were not exposed to UV and were used as negative controls. The other mice were chronically UV irradiated. After randomization the mice were lightly anesthetized with halothane and adjustable collars made of hook and loop fastener approximately 10 mm wide and 70 mm long were placed around the mouse's neck to prevent oral ingestion of the IRM. Unless otherwise indicated, thirty minutes before UV exposure mice were topically dosed with 30 μL of either (1) vehicle formulation, (2) IRM formulation, or (3) an SPF 30 sunscreen (NEUTROGENA SPF30 Sunblock with PARSOL 1789), two times per week for a total of 15-18 weeks on the dorsal surface in an area approximately 6 cm^2. Approximately four hours after dosing, the topical treatment (i.e, vehicle formulation; IRM formulation, or sunscreen) was washed off using a dilute soap solution.
(§3) Mice were placed in a standard plexiglass rat cage, 9-10 at a time, that was separated into 12 individual compartments with plexiglass dividers and placed on a shelf 14 inches below the light source without wire cage tops. The mice were exposed to UV radiation 5 times per week (Monday thru Friday) for an average of 15-18 weeks. The UV radiation was provided by a bank of six FS40 lamps (National Biological Corporation, Twinsburg, Ohio), filtered by a Kodacel filter (140 μm thick K6808 cellulose triacetate film; Eastman Kodak, Rochester, N.Y.) that transmits radiation having a wavelength from about 293 nm to about 400 nm. The Kodacel filter was aged 4-6 hours before use. The lights emit UVB (21%) and UVA (79%) light with a peak wavelength of 313 nm, as measured using a radiometer Model PMA 2200 from Solar Light Company (Philadelphia, Pa.) with a PMA 2101 detector for UVB and PMA2110 detector for UVA.
(§4) The dose of UVB irradiation was measured by MED (minimal erythemal dose). By using MED, a relatively constant incident dose of UV was maintained over time. The initial dose of UVB to the mice was 12.6 mJ/cm^2 (0.6 MED) and the average total dose of UVB was 3000-5200 mJ/cm^2. An increase of 10-20% of the MED dose per week was needed due to acclimation of the mice.
(§5) All mice were distinguished from one another by a tattoo placed on the tail. The development and appearance of tumors were noted weekly and recorded starting at about 14-18 weeks.
UV dosing and IRM dosing were initiated simultaneously. Daily UV dosing was performed five days per week for 17 weeks. IRM dosing was performed twice per week with the compounds indicated in Table 9, each in a 0.1% formulation. SPF dosing was performed five times per week.
An additional group of mice were topically dosed twice per week with 0.1% formulation of a non-IRM control compound: 1,5-dihydro-1-(2-methylpropyl)-4H-imidazo[4,5-c]quinolin-4-one, the synthesis of which is described in U.S. Pat. No. 4,698,348, Example 71, formulated as shown in Table 8. The non-IRM compound is structurally related to, but outside the scope of, IRM compounds as provided above. […] Mice in the non-IRM group were UV dosed five times per week for 18 weeks. […]

[3] = test system: UV-induced squamous cell carcinoma (SCC), actinic keratosis (AK), or pre-AK lesions; test: UV-induced epidermal neoplasia in SKH-1 mice, Example 1 (UV and IRM dosing initiated simultaneously, 15 weeks); type: in vivo; details: 0.1% formulation in Vehicle 1, topical twice per week, UV five days per week for 15 weeks
Description: (§6) Female SKH-1 mice 9-10 weeks old were obtained from Charles River (Raleigh, N.C.) and housed in a room with controlled temperatures and humidity and alternating 12-hour light and dark cycles. The room is lit with fluorescent lights covered by yellow sleeves from EncapSulite International, Inc. (Rosenberg, Tex.) to eliminate all ambient UV radiation. The mice were fed with a 12% Corn Oil Purified Diet from Purina Test Diet (Richmond, Va.) and water, ad libitum. […]
(§7) Mice were placed in a standard plexiglass rat cage, 9-10 at a time, that was separated into 12 individual compartments with plexiglass dividers and placed on a shelf 14 inches below the light source without wire cage tops. […] The lights emit UVB (21%) and UVA (79%) light with a peak wavelength of 313 nm, as measured using a radiometer Model PMA 2200 from Solar Light Company (Philadelphia, Pa.) with a PMA 2101 detector for UVB and PMA2110 detector for UVA.
(§8) The dose of UVB irradiation was measured by MED (minimal erythemal dose). […]
(§9) All mice were distinguished from one another by a tattoo placed on the tail. The development and appearance of tumors were noted weekly and recorded starting at about 14-18 weeks. […]

[4] = test system: UV-induced squamous cell carcinoma (SCC), actinic keratosis (AK), or pre-AK lesions; test: UV-induced epidermal neoplasia in SKH-1 mice, Example 3 (simultaneous initiation, 18 weeks); type: in vivo; details: for % Disease: topical twice per week, UV five days per week for 18 weeks; for Avg. Disease Score: twice per week, UV 18 weeks, SCC + AK + pre-AK lesion score (Table 5)
Description: as §1, §2, §3, §4, §5
Formulations of IRM1 and IRM2 were prepared using Vehicle 1. UV dosing and IRM dosing were initiated simultaneously. UV dosing was performed five days per week for 18 weeks.
After 18 weeks, the mice were subjected to gross inspection to determine the presence of a disease state, i.e., squamous cell carcinoma (SCC), actinic keratosis (AK), or pre-AK lesions.
The disease state of each mouse was scored by measuring the size and/or number of lesions present on the mouse. SCC lesions and AK lesions of at least 1 mm in diameter were given a score of 1.
The SCC lesion score, AK lesion score, and the pre-AK lesion score (according to Table 5) were added to provide a total disease score for each mouse. Table 6 includes the average disease score for all of the mice in each treatment group.

[5] = test system: UV-induced squamous cell carcinoma (SCC), actinic keratosis (AK), or pre-AK lesions; test: UV-induced epidermal neoplasia in SKH-1 mice, Example 2 (UV dosing six weeks before IRM dosing, 15 weeks); type: in vivo; details: topical twice per week, UV for six weeks before IRM dosing, UV five days per week for 15 weeks
Description: as §6, §7, §8, §9

cytokines = test: Induction of production and secretion of cytokines

Structure (SMILES)	Avg. Disease Score [2]	% Disease [2] [%]	Diseased (number of mice) [2]	further results
CC(C)Cn1cnc2c(N)nc3ccccc3c21 [IRM14, 1-(2-methylpropyl)-1H-imidazo[4,5-c]quinolin-4-amine]	–	–	–	complete responders (no clinically visible AK lesions in the 25 cm^2 treatment area at the Evaluation visit) ([1]; 5% cream once daily three days per week for sixteen weeks, evaluated eight weeks after treatment, 117 of 242 subjects): 48.3%; AK Recurrence Rate ([1]; complete responders at Follow-up visit 12 to 18 months after Evaluation visit, no treatment in between, 77 IRM14-treated): 24.7%
Nc1nc2ccccc2c2c1ncn2CCOCCCc1cccnc1 [IRM10, 1-{2-[3-(3-pyridyl)propoxy]ethyl}-1H-imidazo[4,5-c]quinolin-4-amine]	2.50 ± 1.07	70	7	–
CCCc1nc2c(N)nc3ccccc3c2n1CC(C)(C)NS(C)(=O)=O [IRM6, N-[2-(4-amino-2-propyl-1H-imidazo[4,5-c]quinolin-1-yl)-1,1-dimethylethyl]methanesulfonamide]	0.38 ± 0.38	13	1	–
CCCc1nc2c(N)nc3ccccc3c2n1CCCCNC(=O)NC(C)C [IRM8, N-[4-(4-amino-2-propyl-1H-imidazo[4,5-c]quinolin-1-yl)butyl]-N′-isopropylurea]	3.13 ± 0.89	75	6	–
Nc1nc2ccccc2c2c1nc1n2CCCC1 [IRM3, 8,9,10,11-tetrahydropyrido[1′,2′:1,2]imidazo[4,5-c]quinolin-6-amine]	1.00 ± 0.54	30	3	–
CC(C)Cn1cnc2c(N)nc3cccnc3c21 [IRM1, 1-(2-methylpropyl)-1H-imidazo[4,5-c][1,5]naphthyridin-4-amine]	–	–	–	% Disease (percentage of mice exhibiting a disease state) [3]: 0%; % Disease ([4]; 0.01% formulation): 71%; Avg. Disease Score ([4]; 0.01% formulation): 2.86 ± 0.82; % Disease ([4]; 0.1% formulation): 50%; Avg. Disease Score ([4]; 0.1% formulation): 0.66 ± 0.33
CCCCc1nc2c(N)nc3ccccc3c2n1CCCS(C)(=O)=O [IRM11, 2-butyl-1-[3-(methylsulfonyl)propyl]-1H-imidazo[4,5-c]quinolin-4-amine]	0.70 ± 0.47	20	2	–
CCOCc1nc2c(N)nc3ccccc3c2n1CC(C)(C)NC(=O)C1CCCCC1 [IRM4, N-{2-[4-amino-2-(ethoxymethyl)-1H-imidazo[4,5-c]quinolin-1-yl]-1,1-dimethylethyl}cyclohexanecarboxamide]	0.67 ± 0.67	11	1	–
CCc1nc2c(N)nc3ccccc3c2n1CCCCNC(=O)C(C)C [IRM5, N-[4-(4-amino-2-ethyl-1H-imidazo[4,5-c]quinolin-1-yl)butyl]-2-methylpropanamide]	5.40 ± 1.91	60	6	–
CCOCc1nc2c(N)nc(C)c(C)c2n1CC(C)(C)NC(=O)NC1CCCCC1 [IRM9, N-{2-[4-amino-2-(ethoxymethyl)-6,7-dimethyl-1H-imidazo[4,5-c]pyridin-1-yl]-1,1-dimethylethyl}-N′-cyclohexylurea]	2.00 ± 0.89	60	3	–
Cc1nc2c(N)nc3cccnc3c2n1CC(C)C [IRM2, 2-methyl-1-(2-methylpropyl)-1H-imidazo[4,5-c][1,5]naphthyridin-4-amine]	–	–	–	% Disease (percentage of mice exhibiting a disease state) [3]: 11%; % Disease ([5]; 0.1% formulation): 63%; % Disease ([5]; 1.0% formulation): 50%; % Disease ([4]; 0.01% formulation): 71%; Avg. Disease Score ([4]; 0.01% formulation): 4.86 ± 1.81; % Disease ([4]; 0.1% formulation): 25%; Avg. Disease Score ([4]; 0.1% formulation): 0.6 ± 0.42
CC(C)Cn1cnc2c(=O)[nH]c3ccccc3c21 [non-IRM, 1,5-dihydro-1-(2-methylpropyl)-4H-imidazo[4,5-c]quinolin-4-one]	–	–	–	induction of production and secretion of cytokines (cytokines): does not induce the production and secretion of cytokines
COCCc1nc2c(N)nc3c(c2n1CC(C)(C)NS(C)(=O)=O)CCCC3 [IRM7, N-{2-[4-amino-2-(2-methoxyethyl)-6,7,8,9-tetrahydro-1H-imidazo[4,5-c]quinolin-1-yl]-1,1-dimethylethyl}methanesulfonamide]	3.90 ± 1.30	60	6	–
CCOCc1nc2c(N)nc3ccccc3c2n1NC(C)C [IRM13, 2-ethoxymethyl-N^1-isopropyl-1H-imidazo[4,5-c]quinoline-1,4-diamine]	3.33 ± 1.54	67	4	–
CCCCc1nc2c(N)nc3ccccc3c2n1CCS(=O)(=O)CCC [IRM12, 2-butyl-1-[2-(propylsulfonyl)ethyl]-1H-imidazo[4,5-c]quinolin-4-amine]	0.00 ± 0.00	0	0	–
